Experimental data reported in US20110257245A1, “METHODS OF IDENTIFYING REGULATORS OF CELLULAR PROTEOSTASIS” (The Board of Trustees of the Leland Stanford Junior …, priority 2010, published 2011).
Where a SMILES comes first, the peptide text is derived from it. The star is where a group is joined. Cbz = O=C(OCc1ccccc1)*

Legend:
[1] = tested on: 26S proteasomes; test: In vitro Sic1 degradation assay; assay type: biochemical, rat
Experimental: The substrate degradation reaction was carried out at room temperature in 50-100 μL total volume containing 10 nM 26S, 1×ATP buffer, and 100 nM [35S]Sic1-Ubn. 5 μL reaction aliquots were removed at various time points and separated on a 4-20% gradient gel followed by autoradiography. Alternately, aliquots were added to 10% trichloroacetic acid (TCA) or ddH20 on ice for 30 min and 2 mg/mL bovine serum albumin as a carrier. Samples were centrifuged at 12,000×g for 30 min, and the supernatant removed for analysis by scintillation spectrometry. The percent of degradation was determined by dividing the measured counts after TCA precipitation by the total counts measured in ddH20. To assess the ubiquitin-dependence of degradation, [35S]Sic1-Ubn was pretreated with 10 nM Usp2 cc (Baker et al., 2005) for 30 min at 37° C. prior to the addition of proteasomes. To inhibit substrate degradation, 26S proteasomes were pretreated with 10 μM MG132 (Biomol) prior to the addition of substrate. The initial rate of degradation was determined by least-squares linear regression analyses of 5, 10, and 20 min time points using Sigmaplot. The dependence of the initial rate of degradation on substrate concentration was plotted, and the data fit to the Michaelis-Menten equation using Sigmaplot.

[2] = tested on: HEK293 cells stably expressing GFP-CL1, UbG76V-GFP, Ub-R-GFP or cODC-GFP; test: Fluorescent proteasome reporters challenged with proteasome inhibitor; assay type: cell-based; details: 10 μM MG-132, all four reporters
Experimental: FIG. 6 depicts features of fluorescent proteasome reporters, used in embodiments of the present invention. Untransfected HEK293 cells, and cells stably expressing GFP-CL1, UbG76V-GFP, Ub-R-GFP or cODC-GFP were treated with 10 μM MG-132 and at the times indicated, mean GFP fluorescence was analyzed by flow cytometry (Panel A) or by fluorescence microscopy of living cells (Panel B). […] Cells were incubated overnight at the permissive temperature 32° C. (black bars), at 32° C. in the presence of 10 μM MG-132 (white bars) or at the non-permissive temperature 40° C. (grey bars). Mean GFP fluorescence was analyzed by flow cytometry, and plotted as relative fluorescence change. […] HEK293 cells stably expressing UbG76V-GFP or GFP were transiently transfected with httchFP, and analyzed as described in FIG. 1B. […] Htt(Q91)-chFP-specific GFP fluorescence is plotted for GFP (♦) and UbG76V-GFP expressing cells (▪).
Unless indicated, cells were harvested 72 hrs after transfection and analyzed with a Becton-Dickinson LSRII flow cytometer with a 488 nm and a 535 nm Laser (BD, Franklin Lakes, N.J.). To ensure a sufficient number of cells with elevated levels of the transfected protein, over 200,000 cells were analyzed per condition in a typical experiment. […] Raw flow cytometry data were analyzed using FlowJo (version 8.8.6, Tree Star) software. […]

| Molecule | effect on degradation of PY-Sic1(Ubn) by purified proteasomes ([1]; 10 μM MG132, 10 nM 26S, 100 nM substrate) | fluorescence of GFP-degron proteasome reporters [2] | Km ([1]; 10 nM 26S proteasomes, read-out: Km of [35S]PY-Sic1(Ubn) degradation (Michaelis-Menten analysis)) [µM] |
| --- | --- | --- | --- |
| CC(C)C[C@@H](C=O)NC(=O)[C@H](CC(C)C)NC(=O)[C@H](CC(C)C)NC(=O)OCc1ccccc1 [MG132] (Cbz-Leu-Leu-Leu-aldehyde) | inhibited | diffuse time-dependent increases in cytoplasmic fluorescence | – |
| [35S]PY-Sic1(Ubn): [35S]-labeled polyubiquitinated PY-Sic1 model substrate of the 26S proteasome (protein, UniProt P38634 1-284, looked up, 35S label, PY motif, polyubiquitinated, [35S]-labeled polyubiquitinated PY-Sic1 model substrate of the 26S proteasome) Protein SIC1: MTPSTPPRSRGTRYLAQPSGNTSSSALMQGQKTPQKPSQNLVPVTPSTTKSFKNAPLLAPPNSNMGMTSPFNGLTSPQRSPFPKSSVKRTLFQFESHDNGTVREEQEPLGRVNRILFPTQQNVDIDAAEEEEEGEVLLPPSRPTSARQLHLSLERDEFDQTHRKKIIKDVPGTPSDKVITFELAKNWNNNSPKNDARSQESEDEEDIIINPVRVGKNPFASDELVTQEIRNERKRAMLRENPDIEDVITYVNKKGEVVEKRRLTDEEKRRFKPKALFQSRDQEH | – | – | 0.0469 ± 0.0035 |
